Data published in article PMC10067956, “Pyrazole derivatives of pyridine and naphthyridine as proapoptotic agents in cervical and breast cancer cells” (Scientific Reports, 2023).
Read-outs that look alike come from different tables or passages of the source. Each block holds one compound with its values, some of them ahead of it.

How the values were obtained:
[1] = system: HeLa cells; assay: MTT cell viability assay, HeLa; format: cell-based; settings: 24 h; for inhibition at 100 µM: read-out: %Inhibition at 100 µM, HeLa cell line; for IC50: read-out: IC50 (µM) ± SEM, HeLa Cell Line
Procedure: (§1) The anti-proliferative activity of the studied compounds was determined against breast (MCF-7) and cervical (HeLa) cancer cells by the MTT cell viability assay as described earlier[44],[45]. BHK-21 cells were used as non-cancerous cells to study the effect of these compounds on normal cells. Briefly, 1 × 10^4 cells/well were seeded in 96-well microtiter plate and placed in an incubator (Heracell™ VIOS 160i, Thermo-Fisher Scientific) set for 5% CO2 at 37 °C. The stock solutions of compounds were prepared at 10 mM concentration in DMSO. Initial working solutions were prepared in cell culture medium at 1 mM concentration. […] After 24 h, medium in each well was aspirated and cells were treated for 4 h with serum free medium containing 0.2 mg/mL MTT reagent. The solubilizing reagent (10% acidified sodium dodecyl sulfate in propanol in a 1:1 ratio) was added to solubilize formazan crystals. Plates were kept at 37 °C for 30 min and then placed on a gyratory shaker for few min for complete solubilization of formazan crystals. The optical density was measured at 570 nm by microplate reader and IC50 values were calculated from three independent experiments as previously reported.

[2] = system: MCF-7 cells; assay: MTT cell viability assay, MCF-7; format: cell-based; settings: Homo sapiens; for inhibition at 100 µM: MCF7, 100 µM, 24 h, read-out: %Inhibition at 100 µM, MCF-7 cell line
Procedure: as §1

[3] = system: BHK-21 cells; assay: MTT cell viability assay, non-cancerous BHK-21; format: cell-based, Baby Hamster; settings: Mesocricetus auratus, 24 h, read-out: IC50 (µM) ± SEM, BHK-21 cell line
Procedure: as §1

[4] = system: MCF-7 cells; assay: LDH cytotoxicity assay, MCF-7; format: cell-based; settings: IC50 and 2 × IC50
Procedure: (§2) Briefly, 1 × 10^4 cells/well were seeded in a flat bottom 96 well cell culture plate and kept for overnight incubation. Cells were treated with potent compounds 5j and 5k at the IC50 and 2 × IC50 values. The plate was centrifuged at 1500 rpm for 3 min and the supernatant (50 µL) transferred to a new sterile 96-well plate. After addition of substrate mix (50 µL), plate was placed at room temperature for 30 min. The absorbance was measured at 490 nm and 680 nm using microplate reader (FLUOstar Omega, Ortenberg, Germany). Cytotoxicity was measured as described earlier.

[5] = system: MCF-7 cells; assay: Fluorescence microscopy of apoptosis (PI, DAPI), MCF-7; format: cell-based; settings: IC50 and 2 × IC50, 24 h
Procedure: (§3) Morphological changes in compound treated cancer cells were identified using propidium iodide (PI) and 4′,6-diamidino-2-phenylindole (DAPI) staining with observing under a fluorescence microscope (Nikon ECLIPSE Ni–U, Japan). […] After 24 h, media was aspirated, cells were washed with sterile phosphate buffered saline (PBS) and fixed by using 4% formalin and 0.1% Triton X–100 as adherent cells fixation solution. Further, 10 µL (0.01 mg/mL) of PI or DAPI solution was added on slides and kept for 10 min in dark. Fluorescence photomicrographs were captured as previously reported.

[6] = system: MCF-7 cells; assay: Oxidative stress (H2DCF-DA staining), MCF-7; format: cell-based; settings: IC50 and 2 × IC50
Procedure: (§4) After washing with sterile PBS, cells were fixed and 10 µL (0.01 mg/mL) of H2DCF-DA dye was added on microscopic slides. After an incubation of 10 min at room temperature in the dark, fluorescence photomicrographs were obtained as previously reported.

[7] = system: MCF-7 cells; assay: Mitochondrial membrane potential (JC-1), MCF-7; format: cell-based; settings: IC50 and 2 × IC50, 24 h
Procedure: (§5) Mitochondrial membrane potential was determined by a fluorimetric method using fluorescent dye 5′,5′,6′,6′-tetrachloro-1′,1′,3′,3′-[…] (JC-1). Briefly, 1 × 10^5 cells were grown and treated with IC50 and 2 × IC50 values of compounds 5j and 5k for 24 h. Cells were harvested, pelletized and treated with 0.25 µM of fluorescent dye JC-1. Each sample was transferred to a flat-bottomed black 96-well plate, which was kept in the dark for 20 min. Fluorescence emission was measured by a fluorescent microplate reader (FLUOstar Omega BMG Labtech, Germany) at 590 nm and 520 nm for j-aggregates and j-monomers. Results were measured as ratio of red/green fluorescence as previously reported.

[8] = system: caspase-9; assay: Activated caspase-9 in MCF-7 cells; format: cell-based; settings: versus control
Source text: (§6) Results were represented as fold increase in activated caspase-9 and caspase-3/7 as compared to control as previously reported.

[9] = system: caspase-7; assay: Activated caspase-7 in MCF-7 cells; format: cell-based; settings: versus control
Source text: as §6

[10] = system: HeLa cells; assay: LDH cytotoxicity assay, HeLa; format: cell-based; settings: IC50 and 2 × IC50
Procedure: as §2

[11] = system: HeLa cells; assay: Fluorescence microscopy of apoptosis (PI, DAPI), HeLa; format: cell-based; settings: IC50 and 2 × IC50, 24 h
Procedure: as §3

[12] = system: HeLa cells; assay: Oxidative stress (H2DCF-DA staining), HeLa; format: cell-based; settings: IC50 and 2 × IC50
Procedure: as §4

[13] = system: HeLa cells; assay: Cell cycle analysis by flow cytometry; format: cell-based; settings: IC50 and 2 × IC50, PI staining
Procedure: Briefly, HeLa cells (2 × 10^5 cells/mL) were grown and treated with IC50 and 2 × IC50 values of potent compound 5j. Cells were harvested and washed three times with PBS to remove traces of cell culture medium. Cells were fixed in 70% ethanol for 24 h at − 20 °C. Pelletized cells were then re-suspended in 1 mL of a solution containing PI (20 µg/mL), RNase A (50 µg/mL) and 0.1% (v/v) Triton X-100. Samples were kept in the dark for 30 min at room temperature and analyzed within an hour as reported earlier.

[14] = system: herring sperm DNA; assay: DNA binding studies (UV absorption); settings: 200 µM compound; 0 to 396 µM DNA; hypochromicity, no red or blue shift
Procedure: A stock solution of 5 mg of DNA was prepared in 10 mL of distilled water and the purity of the DNA (A260/A280) was in the range of 1.6 to 1.9. Compound 5j was tested at a final concentration of 200 µM with varying end concentrations (0 to 396 µM) of DNA. The plate was placed at room temperature for 30 min and the UV absorption spectrum was recorded by microplate reader (FLUOstar Omega BMG Labtech, Ortenberg, Germany).

[15] = system: HeLa cells; assay: Alkaline comet assay; format: cell-based
Procedure: Comet assay is a sensitive method to determine DNA damage which was performed after some modifications in a published protocol. […] The cervical cancer (HeLa) cells were treated with IC50 value of potent compound 5j for 24 h. Cells were harvested, collected and centrifuged to obtain a pellet. Pelleted cells were re-suspended in media. Untreated cells were used as control cells. For the positive control, 2 × 10^4 cells were treated with 20 µM of freshly prepared hydrogen peroxide for 30 min. Slides were prepared by coating with 1% normal melting point agarose (NMPA) on one side and then dried. Samples (2 × 10^4 cells/sample) were re-suspended in 1 mL of PBS. In a tube, 0.4 mL cell suspension was mixed with 1.2 mL of 0.9% low melting point agarose (LMPA) and mixed thoroughly by pipetting. A cell suspension of 65 µL was laid on coated slide and evenly distributed by placing a coverslip over it. Slides were placed at − 20 °C for 10 min. Then the slides were placed at 4 °C in the dark in a lysis buffer of 100 mM EDTA, 10 mM Trizma base, 2.5 M sodium chloride, 10% DMSO and 1% Triton X-100 in distilled water with a pH of 10. After an overnight incubation, slides were washed with chilled distilled water. These slides were then placed in electrophoresis chamber (Wealtec, USA) having chilled (4 °C) alkali unwinding solution (300 mM sodium hydroxide and 1 mM EDTA in distilled water). Electrophoresis was carried out at an adjusted voltage (between 0.7 and 1.0 V/cm) for 35 min in an electrophoresis tank. Slides were then immersed in neutralization solution (0.4 M Trizma base in 800 mL water, pH 7.5) for 10 min in dark. Propidium iodide (20 µL of 0.01 mg/mL) was used as fluorescent dye to stain DNA. Slides were placed in dark at room temperature. After 10 min, images were captured using a fluorescence microscope (Nikon ECLIPSE Ni–U, Japan) at an excitation/emission wavelength of 493/632 nm. Microscopic images were analyzed using ImageJ (ij152-win-java8, National Institutes of Health, Bethesda, USA) and OpenComet (OpenComet_imagej_v1.3.1, USA) where the DNA content in the head and tail of the comets were automatically measured by the software. Results of three independent experiments were expressed as tail length ([…]), %DNA in comet tail and comet tail moment.

[16] = system: HeLa cells; assay: Mitochondrial membrane potential (JC-1), HeLa; format: cell-based; settings: IC50 and 2 × IC50, 24 h
Procedure: as §5

[17] = system: caspase-9; assay: Activated caspase-9 in HeLa cells; format: cell-based; settings: versus control
Source text: as §6

[18] = system: caspase-3/7; assay: Activated caspase-3/7 in HeLa cells; format: cell-based; settings: versus control
Source text: as §6

[19] = 5j 6.4 µM 24 h, H2O2 20 µM 30 min (positive control)

IC50 ([1]; Homo sapiens): 7.25 ± 0.12 µM
IC50 ([2]; MCF7, 24 h, read-out: IC50 (µM) ± SEM, MCF-7 cell line): 2.03 ± 0.23 µM
SMILES: Cc1[nH]nc2nc(N)c3c(N)nc4ccc(Cl)cc4c3c12 [5k]
inhibition at 100 µM ([1]; Homo sapiens): 96.4%
inhibition at 100 µM [2]: 69.5%
IC50 [3]: 8.21 ± 0.57 µM
leaked LDH (cytotoxic effect) [4]: dose dependent increase in leaked LDH
morphological features of apoptosis, PI and DAPI staining [5]: Cell detachment, shrinkage of cells and condensation of nuclear material was observed
ROS production, H2DCF-DA staining [6]: ROS generation
mitochondrial membrane potential, ratio of red/green fluorescence (JC-1) [7]: decrease in red/green ratio
fold increase in activated caspase-9 ([8]; at 2 × IC50, 18 h): 1.4 folds
fold increase in activated caspase-9 ([8]; at IC50, 18 h): 1.1 folds
fold increase in activated caspase-7 ([9]; at 2 × IC50, 18 h): 1.8 fold
fold increase in activated caspase-7 ([9]; at IC50, 18 h): 1.4 fold

IC50 [1]: 6.43 ± 0.45 µM
IC50 ([1]; Homo sapiens): 6.4 ± 0.45 µM
mode of interaction with DNA (absorption spectra) [14]: non-covalently bound to DNA
SMILES: Cc1[nH]nc2nc(N)c3c(N)nc4ccc(F)cc4c3c12 [5j]
inhibition at 100 µM ([1]; Homo sapiens): 94.8%
inhibition at 100 µM [2]: 47.8%
IC50 [3]: 27.5 ± 1.32 µM
leaked LDH (cytotoxic effect) [10]: dose dependent increase in leaked LDH
morphological features of apoptosis, PI and DAPI staining [11]: Cell detachment, shrinkage of cells and condensation of nuclear material was observed
ROS production, H2DCF-DA staining [12]: ROS generation
cell cycle arrest [13]: G0/G1 arrest
DNA damage in comet assay ([15]; 6.4 µM): DNA damage in treated cells, comparable to positive control
%DNA in tail ± SD ([15]; 5j 6.4 µM 24 h): 41.02 ± 7.61%
Tail length ± SD [15, 19]: 43 ± 10.3 µm
Tail moment ± SD [15, 19]: 23.22 ± 1.61
mitochondrial membrane potential, ratio of red/green fluorescence (JC-1) [16]: decrease in red/green ratio
fold increase in activated caspase-9 ([17]; at 2 × IC50, 18 h): 2.2 folds
fold increase in activated caspase-9 ([17]; at IC50, 18 h): 1.4 folds
fold increase in activated caspase-3/7 ([18]; at 2 × IC50, 18 h): 4.8 folds
fold increase in activated caspase-3/7 ([18]; at IC50, 18 h): about 4 folds
